In ChEMBL document CHEMBL1141016, “Orally bioavailable prodrugs of a BCS class 2 molecule, an inhibitor of HIV-1 reverse transcriptase” (Bioorg Med Chem Lett, 2008):
Values after ≈ are worked out from the molar mass of the structure shown.

Key:
Rattus norvegicus [1] = test: AUC (0 to 24 hrs) in Hanover Wistar rat assessed as 5-(6-chloro-2-fluoro-3-((5-methyl-6-oxo-1,6-dihydropyridazin-3-yl)methyl)phenoxy)isophthalonitrile level at 50 mg/kg, po; set-up: unit not given here; details: in vivo
Rattus norvegicus [2] = test: Tmax in Hanover Wistar rat assessed as 5-(6-chloro-2-fluoro-3-((5-methyl-6-oxo-1,6-dihydropyridazin-3-yl)methyl)phenoxy)isophthalonitrile level at 50 mg/kg, po; assay type: ADME, organism-based; set-up: dose 50 mg/kg, route oral; details: in vivo
[3] = Aqueous stability assessed as half life at pH 6.5; assay type: physicochemical
[4] = Aqueous stability assessed as half life at pH 2; assay type: physicochemical
Rattus norvegicus [5] = test: Cmax in Hanover Wistar rat assessed as 5-(6-chloro-2-fluoro-3-((5-methyl-6-oxo-1,6-dihydropyridazin-3-yl)methyl)phenoxy)isophthalonitrile level at 50 mg/kg, po; assay type: ADME, organism-based; set-up: dose 50 mg/kg, route oral; details: in vivo
[6] = Aqueous solubility at pH 6.5; assay type: physicochemical
[7] = Tmax in Hanover Wistar rat at 5 mg/kg, po; assay type: ADME, organism-based; set-up: dose 5 mg/kg, route oral; details: in vivo
[8] = Cmax in Hanover Wistar rat at 50 mg/kg, po; assay type: ADME, organism-based; set-up: dose 50 mg/kg, route oral; details: in vivo
[9] = Cmax in Hanover Wistar rat at 5 mg/kg, po; assay type: ADME, organism-based; set-up: dose 5 mg/kg, route oral; details: in vivo
[10] = Dissociation constant, pKa of the compound; assay type: physicochemical
Rattus norvegicus [11] = test: AUC (0 to 24 hrs) in Hanover Wistar rat at 5 mg/kg, po; details: in vivo
[12] = Tmax in Hanover Wistar rat at 50 mg/kg, po; assay type: ADME, organism-based; set-up: dose 50 mg/kg, route oral; details: in vivo
Rattus norvegicus [13] = test: AUC (0 to 24 hrs) in Hanover Wistar rat at 50 mg/kg, po; details: in vivo
[14] = Permeability across human Caco-2 cells; assay type: ADME, cell-based; details: read-out: permeability

Row | SMILES | AUC (Rattus norvegicus [1]) | Tmax (Rattus norvegicus [2]) | half-life [3] | half-life [4] | Cmax (Rattus norvegicus [5]) | solubility [6] | Tmax [7] | Cmax [8] | Cmax [9] | pKa [10] | AUC (Rattus norvegicus [11]) | Tmax [12] | AUC (Rattus norvegicus [13]) | Papp [14]
1 | Cc1cc(Cc2ccc(Cl)c(Oc3cc(C#N)cc(C#N)c3)c2F)nn(COC(=O)OCCN2CCOCC2)c1=O.Cl | 89 | 3.3 h | 3.5 h | 301 h | 5.6 µM | – | – | – | – | – | – | – | – | –
2 | Cc1cc(Cc2ccc(Cl)c(Oc3cc(C#N)cc(C#N)c3)c2F)nn(COC(=O)CN)c1=O.Cl | 93 | 4 h | 1 h | 38 h | 6.3 µM | – | – | – | – | – | – | – | – | –
3 | Cc1cc(Cc2ccc(Cl)c(Oc3cc(C#N)cc(C#N)c3)c2F)nn(COC(=O)[C@@H](N)C(C)C)c1=O.Cl | 134 | 4 h | 3.2 h | 1420 h | 9.1 µM | – | – | – | – | – | – | – | – | –
4 | Cc1cc(Cc2ccc(Cl)c(Oc3cc(C#N)cc(C#N)c3)c2F)nn(COC(=O)c2cccnc2)c1=O.Cl | 101 | 4.7 h | 4.7 h | 10 h | 8.8 µM | – | – | – | – | – | – | – | – | –
5 | Cc1cc(Cc2ccc(Cl)c(Oc3cc(C#N)cc(C#N)c3)c2F)nn(COC(=O)[C@@H]2CCCN2)c1=O.Cl | 108 | 4.7 h | < 0.3 h | 17 h | 7.3 µM | – | – | – | – | – | – | – | – | –
6 | Cc1cc(Cc2ccc(Cl)c(Oc3cc(C#N)cc(C#N)c3)c2F)nn(COC(=O)CCC(=O)O)c1=O | 142 | 2.7 h | 40 h | 462 h | 13.2 µM | – | – | – | – | – | – | – | – | –
7 | Cc1cc(Cc2ccc(Cl)c(Oc3cc(C#N)cc(C#N)c3)c2F)nn(COP(=O)([O-])[O-])c1=O.[Na+].[Na+] | 178 | 8 h | > 24 h | > 24 h | 12.7 µM | – | – | – | – | – | – | – | – | –
8 | Cc1cc(Cc2ccc(Cl)c(Oc3cc(C#N)cc(C#N)c3)c2F)nn(COC(=O)OCCN(C)C)c1=O.Cl | 108 | 2 h | 0.9 h | 289 h | 7.3 µM | – | – | – | – | – | – | – | – | –
9 | Cc1cc(Cc2ccc(Cl)c(Oc3cc(C#N)cc(C#N)c3)c2F)n[nH]c1=O | – | – | – | – | – | 0.3 µg/mL (≈ 0.76 µM) | 3.7 h | 1.5 µM | 0.96 µM | 10.5 | 6.8 uM.hr/ml | 3.3 h | 20.3 uM.hr/ml | 19 ×10⁻⁶ cm/s
